# Earlier results as cited in article PMC4232510, “Identification of Functionally Important Residues of the Rat P2X4 Receptor by Alanine Scanning Mutagenesis of the Dorsal Fin and Left Flipper Domains” (PLoS ONE, 2014).
# Like-named read-outs stand apart in the source and are kept apart here.
# Tests used:
# Conditions in all cases: cited from earlier work
# P2X2R D277A = system: P2X2R D277A; set-up: method as in PMID 18194442; key: n.f.: non-functional mutants; ↑: mutant with significant increased EC50 in comparison to WT (values represent fold increase); ≈: close to WT receptor; D: affected time-constant of the desensitizing current response
# P2X4R V288A = system: P2X4R V288A; set-up: method as in PMID 24943126
# P2X4R L206A = system: P2X4R L206A; set-up: method as in PMID 24943126; key: n.f.: non-functional mutants; ↑: mutant with significant increased EC50 in comparison to WT (values represent fold increase); ≈: close to WT receptor; D: affected time-constant of the desensitizing current response
# P2X3R S269A = system: P2X3R S269A; set-up: method as in PMID 16226373; key: n.f.: non-functional mutants; ↑: mutant with significant increased EC50 in comparison to WT (values represent fold increase); ≈: close to WT receptor; D: affected time-constant of the desensitizing current response
# P2X4R L214A = system: P2X4R L214A
# P2X3R M200C = system: P2X3R M200C; set-up: method as in PMID 24989924
# P2X1R N204A = system: P2X1R N204A; set-up: method as in PMID 16371009
# P2X4R D280A = system: P2X4R D280A; set-up: method as in PMID 17663752, PMID 15632318
# P2X3R D266A = system: P2X3R D266A; set-up: method as in PMID 15475563; key: n.f.: non-functional mutants; ↑: mutant with significant increased EC50 in comparison to WT (values represent fold increase); ≈: close to WT receptor; D: affected time-constant of the desensitizing current response
# P2X1R G288A = system: P2X1R G288A; set-up: key: n.f.: non-functional mutants; ↑: mutant with significant increased EC50 in comparison to WT (values represent fold increase); ≈: close to WT receptor; D: affected time-constant of the desensitizing current response
# P2X4R I205A = system: P2X4R I205A; set-up: method as in PMID 24943126
# P2X4R H286A = system: P2X4R H286A; set-up: method as in PMID 17663752, PMID 15632318, PMID 12819199, PMID 15246547
smiles,measurement,setting,value
Nc1ncnc2c1ncn2[C@@H]1O[C@H](COP(=O)(O)OP(=O)(O)OP(=O)(O)O)[C@@H](O)[C@H]1O [ATP],change in EC50 for ATP,P2X2R D277A,D277A:: ≈[56]
same,fold increase of EC50 for ATP in comparison to WT,P2X4R V288A,V288A: ↑2x[49]
same,change in EC50 for ATP,P2X4R L206A,L206A: ≈[49]
same,change in desensitization,P2X3R S269A,S269A: D[54]
same,fold increase of EC50 for ATP in comparison to WT,P2X4R L214A; ref 41,8 x
same,fold increase of EC50 for ATP in comparison to WT,P2X4R L214A; ref 49,3 x
same,fold increase of EC50 for ATP in comparison to WT,P2X3R M200C,M200C:↑8x[58]
same,fold increase of EC50 for ATP in comparison to WT,P2X1R N204A,"N204A: ↑3,5x[45]"
same,fold increase of EC50 for ATP in comparison to WT,P2X4R D280A,"D280A ↑>100x[10], [52]"
same,change in desensitization,P2X3R D266A,D266A: D[53]
same,change in EC50 for ATP,P2X1R G288A,≈
same,fold increase of EC50 for ATP in comparison to WT,P2X4R I205A,"I205A: ↑2,5x[49]"
same,fold increase of EC50 for ATP in comparison to WT,P2X4R H286A,"H286A: ↑2–4x[10], [52], [57], [60]"
